According to US20130216482A1, “METHODS AND COMPOSITIONS FOR NON-INVASIVE, DYNAMIC IMAGING OF INTESTINAL MOTILITY” (The Board of Regents of the University of Texas System, priority 2012, published 2013):

Assay: In vivo dynamic NIR fluorescence imaging of ICG distribution, clearance and GI transit
Set-up: species or system mice
Description: Mice were chosen because part of the study involved opening the peritoneal cavity and removing organs to provide detailed information about the method and its abilities. Therefore, the subjects of the study were Female C57BL6 mice (4-6 wk old; Charles River, Wilmington, Mass., USA) that were housed and maintained in a pathogen-free mouse facility accredited by the American Association for Laboratory Animal Care. All studies were performed in accordance with the guidelines of the Institutional Animal Care and Use Committee. Animal experiments were approved by University of Texas Health Science Center Institutional Animal Care and Usage Committee in accordance with NIH guidelines.
In order to carry out in vivo dynamic NIR imaging of GI Motility, the mice were anesthetized with isofluorane and maintained at 37° C. on a warming pad. A volume of 10 μl and 50 ul of 645 μM of IC-Green (Akorn, Inc. Buffalo Grove, Ill., USA) dissolved in mixture of distilled water and 0.9% Sodium Chloride in a volume ratio of 1:9 was injected intradermally and intravenously, respectively.
For intravenous injection of ICG, a catheter was placed in the tail vein of anesthetized mice to facilitate the subsequent delivery of the fluorescent dye. Dynamic fluorescence images were acquired for a period of approximately 6 min immediately before and up to 24 hrs after intravenous injection using a custom-built NIR fluorescence imaging system, the basics of which are presented in FIG. 6 and has been described elsewhere (for example U.S. Pat. Nos. 8,084,753; 7,875,260; 7,865,230; 7,599,732; 7,328,059; 7,268,873; 7,187,441; 7,054,002; 6,930,777; 6,771,370; 5,818,583; 5,865,754 and Kwon and Sevick-Muraca, Lymphat Res Biol 5, 219-231, 2007; Kwon and Sevick-Muraca, J Immunol Methods 360, 167-172, 2010). Anesthetized mice were uniformly illuminated by 785 nm light from a laser diode and the emitted fluorescence was collected using an Electron Multiplying Charge Coupled Device (EMCCD) camera with a holographic filter and a bandpass filter placed prior to a 28 mm lens. Image acquisition with the camera exposure time of 100 ms for fluorescence and white light imaging was accomplished by V++ software. The abdominal skin temperature was monitored for temperature changes during dynamic fluorescence imaging using an infrared thermometer but no temperature changes were observed. Because it was possible that the non-invasive imaging of the intestines may not distinguish the GI lumen from blood and lymphatic vessels, necropsy of the mouse with exposure of the abdomen was performed at 1 hr post injection (p.i.) and the GI tract was removed and laid out on a black paper for intravital imaging.
The data obtained were analyzed with a custom Matlab (The MathWorks, Inc., Natick, Mass., USA) program and ImageJ (National Institutes of Health, Bethesda, Md., USA). Fixed regions of interest (ROIs) from equivalent areas were selected along the length of the fluorescent intestine. An average fluorescent intensity within each ROI was plotted as a function of imaging time and/or length of the intestine. A three-dimensional plot of fluorescent intensity as a function of time and distance was generated and used as a spatio-temporal map to assess the propagation velocity and the frequency of the propagation along the intestine. No corrections were made for respiratory movements in the construction of the three-dimensional spatio-temporal maps. The packet of fluorescent contents is represented by the peak in fluorescence intensity which propagates along the intestine with time. Two ROIs were identified, from which the distance and time information was extracted to measure the propagation velocity. In this study, peristalsis was defined as aboral propagation of contraction waves along the intestine.

[1] = 1 hr post injection, abdomen exposed (FIG. 4: intravenous)

In the case of `CC1(C)C(/C=C/C=C/C=C/C=C2\N(CCCCS(=O)(=O)O)c3ccc4ccccc4c3C2(C)C)=[N+](CCCCS(=O)(=O)[O-])c2ccc3ccccc3c21` [ICG, indocyanine green], the “fluorescence in the cecum” value [1] was “weak”, the “fluorescence throughout the small intestine” value [1] was “strong but non-uniform” and the “source of fluorescent signal in dissected small intestine” value (GI tract removed 1 hr post injection, contents removed) was “does not arise from the intestinal tissues, but rather from its contents”. For the same compound, the “earliest detection of fluorescent signal in the cecum” value (after intradermal injection, also observed at 24 hr post injection) was 1 h, the “time fluorescent vessels could be visualized” value (after intravenous administration) was “up to 2 min” and the “distribution of the ICG throughout the mouse” value (following intravenous injection) was “within seconds”. The “fluorescent signal in the liver” value (injected intravenously, 1 h post injection) was “greatly reduced”, the “fluorescence in the liver (and gallbladder)” value (intradermal administration, 1 h post injection) was “still high” and the “fluorescent signal arising from the stomach” value (post injection, all times) was “absent at all times”.
